Here are results for six compounds from US10751339B2, “Substituted aminopyrimidine compounds and methods of use” (SUNSHINE LAKE PHARMA CO., LTD., priority 2018, dated 2020).

The structures appear in SMILES notation.

Series [1] in a line: Compound stability in rat liver microsomes. Type of series: in vitro ADME. The note with it: for CLint scaled at 5 μM: liver microsomes, in vivo CLint extrapolated from rat liver microsome incubation; for CLint scaled at 5 μM / half-life at 5 μM: pH 7.4; for half-life at 5 μM: read-out: Rat T1/2. How it is done: (§1) Human or rat liver microsomes incubations were conducted in duplicate in polypropylene tubes. The typical incubation mixtures consisted of human or rat liver microsomes (0.5 mg protein/mL), compounds of interest (5 μM) and NADPH (1.0 mM) in a total volume of 200 μL potassium phosphate buffer (PBS, 100 mM, pH 7.4). Compounds were dissolved in DMSO and diluted with PBS such that the final concentration of DMSO was 0.05%. The enzymatic reactions were commenced with the addition of protein after a 3-min preincubation and incubated in a water bath open to the air at 37° C. Reactions were terminated at various time points (0, 5, 10, 15, 30, 60 min) by adding equal volume of ice-cold acetonitrile. The samples were stored at −80° C. until LC/MS/MS assays.
(§2) The concentrations of compounds in the incubation mixtures of human or rat liver microsomes were determined by a LC/MS/MS method. The ranges of the linearity in the concentration range were determined for each tested compounds.
(§3) A parallel incubation was performed using denatured microsomes as the negative control, and reactions were terminated at various time points (0, 15, 60 min) after incubation at 37° C.
(§4) Dextromethorphan (70 μM) was selected as the positive control, and reactions were terminated at various time points (0, 5, 10, 15, 30, 60 min) after incubation at 37° C. Both positive and negative control samples were included in each assay to ensure the integrity of the microsomal incubation system.
(§5) The concentrations of compounds in human or rat liver microsome incubations were plotted as a percentage of the relevant zero time point control for each reaction.

Series [2] can be described thus: Pharmacokinetic profiles in rats. Type of series: in vivo, rat. As to conditions: for clearance / AUC(0-t) / half-life / Vd: iv dosing 1 mg/kg; for AUC(0-t) / half-life / Vd / bioavailability: rat, plasma; for Vd: read-out: Vss; for bioavailability: oral bioavailability. How it is done:
The compounds disclosed herein are assessed in pharmacokinetic studies in mice, rats, dogs or monkeys. The compounds are administered as a water solution, 2% HPMC+1% TWEEN®80 in water solution, 5% DMSO+5% solutol in saline, 4% MC suspension or capsule. For the intravenous administration, the animals are generally given at 1 or 2 mg/kg dose. For the oral (p.o.) dosing, mice and rats are generally given 5 or 10 mg/kg dose, and dogs and monkeys are generally given 10 mg/kg dose. The blood samples (0.3 mL) are drawn at 0.25, 0.5, 1.0, 2.0, 3.0, 4.0, 6.0, 8.0, 12 and 24 h time points or 0.083, 0.25, 0.5, 1.0, 2.0, 4.0, 6.0, 8.0 and 24 h time points and centrifuged at 3,000 or 4000 rpm for 2 to 10 min. The plasma solutions are collected, stored at −20° C. or −70° C. until analyzed by LC/MS/MS as described above.

The nature of series [3]: Compound stability in human liver microsomes. Type of series: in vitro ADME. The note with it: pH 7.4; for CLint scaled at 5 μM: liver microsomes, in vivo CLint extrapolated from human liver microsome incubation; for half-life at 5 μM: human liver microsomes 0.5 mg protein/mL, compound 5 μM, NADPH, 37° C., read-out: Human T1/2. As for the experimental part: as §1, §2, §3, §4, §5

Setting [4] is: rat liver microsomes 0.5 mg protein/mL, compound 5 μM, NADPH, 37° C.

For `Cc1noc(-c2c(N)ncnc2N[C@@H](C)c2nc3cccc(C#CC(C)(C)O)c3c(=O)n2-c2ccccc2)n1` [Example 1, (S)-2-(1-((6-amino-5-(3-methyl-1,2,4-oxadiazol-5-yl)pyrimidin-4-yl)amino)ethyl)-5-(3-hydroxy-3-methylbut-1-yn-1-yl)-3-phenylquinazolin-4(3H)-one], in series [1], the CLint scaled (in general, the rate of metabolic loss divided by the concentration) at 5 μM was 2.5 mL/min/kg. The half-life at 5 μM in series [1] (setting [4]) stood at 16.3 h. Besides, in series [2], the clearance (usually the volume of plasma or blood freed of the substance per unit of time) was found to be 9.17 mL/min/kg, the AUC(0-t) (usually the area under the concentration-time curve up to a stated or last time point) was 1440 ng·h/mL, the half-life is 3.24 h and the Vd stood at 2.38 L/kg. In addition, the bioavailability in series [2] was found to be 120%. In series [3], the CLint scaled at 5 μM was 14.3 mL/min/kg and the half-life at 5 μM turned out to be 2.03 h.
Regarding `Cc1nnc(-c2c(N)ncnc2N[C@@H](C)c2nc3cccc(C#CC(C)(C)O)c3c(=O)n2-c2ccccc2)o1` [Example 2, (S)-2-(1-((6-amino-5-(5-methyl-1,3,4-oxadiazol-2-yl)pyrimidin-4-yl)amino)ethyl)-5-(3-hydroxy-3-methylbut-1-yn-1-yl)-3-phenylquinazolin-4(3H)-one], the “Rat T1/2” value in series [1] (setting [4]) was “∞”. Moreover, in series [2], the clearance is 11.3 mL/min/kg, the AUC(0-t) was determined as 1370 ng·h/mL, the half-life was 1.42 h and the Vd stood at 1.3 L/kg. In series [2], the bioavailability turned out to be 106%. For the same compound, in series [3], the CLint scaled at 5 μM was 3.84 mL/min/kg and the half-life at 5 μM came out at 7.54 h.
Regarding `Cc1nc(-c2c(N)ncnc2N[C@@H](C)c2nc3cccc(C#CC(C)(C)O)c3c(=O)n2-c2ccccc2)no1` [Example 3, (S)-2-(1-((6-amino-5-(5-methyl-1,2,4-oxadiazol-3-yl)pyrimidin-4-yl)amino)ethyl)-5-(3-hydroxy-3-methylbut-1-yn-1-yl)-3-phenylquinazolin-4(3H)-one], in series [1], the CLint scaled at 5 μM was 4.75 mL/min/kg. Also, in series [1] (setting [4]), the half-life at 5 μM came out at 8.72 h. In addition, in series [2], the clearance was found to be 13 mL/min/kg, the AUC(0-t) worked out at 1210 ng·h/mL, the half-life is 1.76 h and the bioavailability came out at 146%. In series [3], the CLint scaled at 5 μM was 9.46 mL/min/kg and the half-life at 5 μM was 3.06 h.
Consider `C[C@H](Nc1ncnc(N)c1-c1nnn(C)n1)c1nc2cccc(C#CC(C)(C)O)c2c(=O)n1-c1ccccc1` [Example 4, (S)-2-(1-((6-amino-5-(2-methyl-2H-tetrazol-5-yl)pyrimidin-4-yl)amino)ethyl)-5-(3-hydroxy-3-methylbut-1-yn-1-yl)-3-phenylquinazolin-4(3H)-one], for which the CLint scaled at 5 μM in series [1] was 5.58 mL/min/kg. For the same compound, the half-life at 5 μM in series [1] (setting [4]) was determined as 7.41 h. In addition, in series [2], the clearance stood at 8.33 mL/min/kg, the AUC(0-t) came to 1870 ng·h/mL, the half-life was 1.87 h and the Vd came to 1.04 L/kg. In series [2], the bioavailability came to 134%. Also, in series [3], the CLint scaled at 5 μM is 5.8 mL/min/kg and the half-life at 5 μM was 5 h.
As to `Cc1nnc(-c2c(N)ncnc2N[C@@H](C)c2nc3cccc(C#CC(C)O)c3c(=O)n2-c2ccccc2)o1` (stereo partly drawn) [Example 7, 2-((S)-1-((6-amino-5-(5-methyl-1,3,4-oxadiazol-2-yl)pyrimidin-4-yl)amino)ethyl)-5-(3-hydroxybut-1-yn-1-yl)-3-phenylquinazolin-4(3H)-one], the CLint scaled at 5 μM in series [1] is 15.3 mL/min/kg. Besides, in series [1] (setting [4]), the half-life at 5 μM was 2.71 h. Also, in series [2], the clearance is 19.3 mL/min/kg, the AUC(0-t) is 862 ng·h/mL, the half-life was 0.61 h and the Vd is 0.61 L/kg. Also, the bioavailability in series [2] amounted to 38.3%. In addition, in series [3], the CLint scaled at 5 μM is 6.34 mL/min/kg and the half-life at 5 μM was 4.57 h.
For `CC#Cc1cccc2nc([C@H](C)Nc3ncnc(N)c3-c3nnc(C)o3)n(C3CC3)c(=O)c12` [Example 22], the CLint scaled at 5 μM in series [1] was 41.8 mL/min/kg. Also, the half-life at 5 μM in series [1] (setting [4]) was 0.991 h. In series [2], the clearance came out at 25.3 mL/min/kg, the AUC(0-t) was 675 ng·h/mL, the half-life was 0.97 h and the Vd stood at 1.83 L/kg. Besides, the bioavailability in series [2] stood at 83.7%. For the same compound, in series [3], the CLint scaled at 5 μM is 62.5 mL/min/kg and the half-life at 5 μM was determined as 0.464 h.
